Measured values as given in patent publication US6617117B1, “MAP kinases: polypeptides, polynucleotides and uses thereof” (Medical Research Council, priority 1996, dated 2003).

Legend:
SAPK3 = target: T1, SAPK3 (Rattus norvegicus, UniProt Q63538); experiment: Activation of transfected myc epitope-tagged SAPK3 in KB and 293 cells, immunoprecipitation and MBP assay; format: cell-based, human
T1 construct: expressed in transfected cells; host or cells: human KB and 293 cells (vector pSG5)
T1 sequence (Q63538 1-367): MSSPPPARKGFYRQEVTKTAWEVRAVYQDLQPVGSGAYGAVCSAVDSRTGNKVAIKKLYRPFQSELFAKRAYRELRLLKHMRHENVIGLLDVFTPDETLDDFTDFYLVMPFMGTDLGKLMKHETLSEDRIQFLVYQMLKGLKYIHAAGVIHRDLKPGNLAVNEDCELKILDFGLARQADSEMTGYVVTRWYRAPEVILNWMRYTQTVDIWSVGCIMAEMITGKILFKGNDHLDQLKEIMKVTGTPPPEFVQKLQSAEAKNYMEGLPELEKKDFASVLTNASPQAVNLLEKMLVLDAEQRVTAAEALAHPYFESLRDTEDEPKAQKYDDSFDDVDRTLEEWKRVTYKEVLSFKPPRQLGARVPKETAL
Protocol: FIG. 11. SAPK3 is activated by cytokines and cellular stresses in KB and 293 cells. KB cells (A) or 293 cells (B) were transiently transfected with a DNA construct expressing a myc epitope-tagged SAPK3. Cells in DMEM were stimulated for 15 min with 0.5 M sorbitol (an osmotic shock), 20 ng/ml IL-1α, 100 ng/ml TNFa, 0.5 mM sodium arsenite (a chemical stress), 100 ng/ml of EGF or 300 ng/ml TPA, or for 30 min with […] anisomycin or 10 min with 100 ng/ml IGF-1. UV-C irradiation of cells was carried out at 60 J/m2 (KB cells) or 200 J/m2 (293 cells) and the cells then left for a further 30 min at 37° C. before lysis. The myc epitope-tagged SAPK3 was immunoprecipitated from cell lysates using the 9E10 monoclonal antibody and assayed with MBP as substrate. […] After UV-C irradiation, SAPK3 activity in the extracts was 0.18 U/mg (KB cells) and 0.1 U/mg (293 cells).
Cell culture and transient transfections. 293, KB and COS-7 cells were cultured in Dulbecco's modified Eagles' Medium (DMEM) supplemented with 10% foetal calf serum, at 37° C., in an atmosphere of 5% CO2. Transfections of 293 cells were carried out using the calcium-phosphate method. […]

SAPK3 (GST-SAPK3) = target: T2, SAPK3 (GST-SAPK3) (Rattus norvegicus, UniProt Q63538); experiment: Effect of SB 203580 on SKK3-activated SAPK3 (FIG. 19); format: biochemical; settings: even at a concentration of 0.1 mM; activated in vitro with purified SKK3
T2 construct: made in house; host or cells: E. coli BL21 (DE3)
T2 sequence (Q63538 1-367): T1 sequence (Q63538 1-367)
Protocol: Protein kinase assays. SAPK3 was assayed routinely by the phosphorylation of MBP. SAPK3 (0.5 or 1 μM) in 40 μl of 25 mM Tris/HCl pH 7.5, 0.1 mM EGTA, 0.1 mM sodium orthovanadate, 1 μM PKI and 0.33 mg/ml MBP was incubated for 3 min at 30° C. before initiating the reaction with 10 μl of 50 mM magnesium acetate-0.5 mM [γ-^32P]ATP. After 20 min at 30° C. 40 μl aliquots were withdrawn, spotted on to 1.5×1.5 cm squares of Whatman P81 phosphocellulose paper and immersed in 75 mM phosphoric acid. After washing and drying the papers (Alessi et al, 1995b), ^32P radioactivity incorporated into MBP was measured. One unit of activity was that amount of enzyme which incorporated 1 nmol of phosphate into MBP in 1 min.

C[S+]([O-])c1ccc(-c2nc(-c3ccncc3)c(-c3ccc(F)cc3)[nH]2)cc1 (centres unmarked) [SB 203580]
Prevention of activation of transfected SAPK3 by osmotic shock (SAPK3): did not prevent | Inhibition of SAPK3 (SAPK3 (GST-SAPK3)): not inhibited significantly
